ChEMBL document CHEMBL6087414, “Discovery of 4-(4-(3-(1-(2-(piperidin-1-yl)ethyl)-1H-benzo[d]imidazole-2-yl)isoxazol-5-yl)phenyl)morpholine as a novel c-Myc inhibitor against lung cancer in vitro and in vivo” (Eur J Med Chem, 2025)
The source made the active and inactive calls. The calls are words filed in the database; no cut-off is given here.

Assays:
A549 [1] = experiment: Cytotoxicity against human A549 cells assessed as inhibition of cell viability incubated for 48 hrs by CCK8 assay; format: functional, cell-based; details: A549, 48 h
NCI-H1299 = experiment: Cytotoxicity against human NCI-H1299 cells assessed as inhibition of cell viability incubated for 48 hrs by CCK8 assay; format: functional, cell-based; details: NCI-H1299, 48 h
[2] = Cytotoxicity against human BEAS-2B cells assessed as cell viability upto 20 uM incubated for 48 hrs by CCK8 assay relative to control; format: toxicity, cell-based; details: read-out: Activity
A549 [3] = experiment: Induction of apoptosis in human A549 cells assessed as viable cells at 2.5 uM incubated for 48 hrs by Annexin V-FITC/PI staining based flow cytometry (reference value: 87.8 %); format: functional; details: read-out: Activity
A549 [4] = experiment: Induction of apoptosis in human A549 cells assessed as early apoptotic cells at 2.5 uM incubated for 48 hrs by Annexin V-FITC/PI staining based flow cytometry (reference value: 5.02 %); format: functional
A549 [5] = experiment: Induction of apoptosis in human A549 cells assessed as late apoptotic cells at 2.5 uM incubated for 48 hrs by Annexin V-FITC/PI staining based flow cytometry (reference value: 5.79 %); format: functional
A549 [6] = experiment: Induction of apoptosis in human A549 cells assessed as necrotic cells at 2.5 uM incubated for 48 hrs by Annexin V-FITC/PI staining based flow cytometry (reference value: 1.41 %); format: functional
A549 [7] = experiment: Induction of apoptosis in human A549 cells assessed as viable cells at 5 uM incubated for 48 hrs by Annexin V-FITC/PI staining based flow cytometry (reference value: 87.8 %); format: functional; details: read-out: Activity
A549 [8] = experiment: Induction of apoptosis in human A549 cells assessed as early apoptotic cells at 5 uM incubated for 48 hrs by Annexin V-FITC/PI staining based flow cytometry (reference value: 5.02 %); format: functional
A549 [9] = experiment: Induction of apoptosis in human A549 cells assessed as late apoptotic cells at 5 uM incubated for 48 hrs by Annexin V-FITC/PI staining based flow cytometry (reference value: 5.79 %); format: functional
A549 [10] = experiment: Induction of apoptosis in human A549 cells assessed as necrotic cells at 5 uM incubated for 48 hrs by Annexin V-FITC/PI staining based flow cytometry (reference value: 1.41 %); format: functional
A549 [11] = experiment: Induction of apoptosis in human A549 cells assessed as viable cells at 10 uM incubated for 48 hrs by Annexin V-FITC/PI staining based flow cytometry (reference value: 87.8 %); format: functional; details: read-out: Activity
A549 [12] = experiment: Induction of apoptosis in human A549 cells assessed as early apoptotic cells at 10 uM incubated for 48 hrs by Annexin V-FITC/PI staining based flow cytometry (reference value: 5.02 %); format: functional
A549 [13] = experiment: Induction of apoptosis in human A549 cells assessed as late apoptotic cells at 10 uM incubated for 48 hrs by Annexin V-FITC/PI staining based flow cytometry (reference value: 5.79 %); format: functional
A549 [14] = experiment: Induction of apoptosis in human A549 cells assessed as necrotic cells at 10 uM incubated for 48 hrs by Annexin V-FITC/PI staining based flow cytometry (reference value: 1.41 %); format: functional
A549 [15] = experiment: Induction of apoptosis in human A549 cells at 5 to 15 uM incubated for 48 hrs by Annexin V-FITC/PI staining based flow cytometry relative to control; format: functional; details: dose 5-15 µM
A549 [16] = experiment: Induction of apoptosis in human A549 cells incubated for 48 hrs by Annexin V-FITC/PI staining based flow cytometry; format: functional, cell-based; details: dose 5-15 µM
A549 [17] = experiment: Induction of apoptosis in human A549 cells assessed as increase in BAX level at 2.5 to 10 uM incubated for 48 hrs by Western blot analysis; format: functional, cell-based; details: dose 2.5-10 µM
A549 [18] = experiment: Induction of apoptosis in human A549 cells assessed as increase in BAD level at 2.5 to 10 uM incubated for 48 hrs by Western blot analysis; format: functional, cell-based; details: dose 2.5-10 µM
A549 [19] = experiment: Induction of apoptosis in human A549 cells assessed as decrease in Bcl-2 level at 2.5 to 10 uM incubated for 48 hrs by Western blot analysis; format: functional, cell-based; details: dose 2.5-10 µM
A549 [20] = experiment: Induction of apoptosis in human A549 cells assessed as activation of caspase-3 cleavage at 2.5 to 10 uM incubated for 48 hrs by Western blot analysis; format: functional, cell-based; details: dose 2.5-10 µM
A549 [21] = experiment: Induction of apoptosis in human A549 cells assessed as activation of caspase-9 cleavage at 2.5 to 10 uM incubated for 48 hrs by Western blot analysis; format: functional, cell-based; details: dose 2.5-10 µM
A549 [22] = experiment: Effect on c-Myc mRNA expression in human A549 cells at 10 uM by Q-PCR analysis; format: functional, cell-based
[23] = molecular target: Myc proto-oncogene protein (Homo sapiens) (UniProt P01106); experiment: Inhibition of c-Myc in human A549 cells by Western blot analysis; format: cell-based; details: dose <= 10.0 µM
[24] = molecular target: Myc proto-oncogene protein (Homo sapiens) (UniProt P01106); experiment: Inhibition of c-Myc in human NCI-H1299 cells by Western blot analysis; format: cell-based; details: dose <= 10.0 µM
[25] = molecular target: Myc proto-oncogene protein (Homo sapiens) (UniProt P01106); experiment: Inhibition of c-Myc in human A549 cells at 10 uM incubated for 24 hrs in presence of MG132 by Western blot analysis; format: cell-based
[26] = molecular target: Myc proto-oncogene protein (Homo sapiens) (UniProt P01106); experiment: Inhibition of c-Myc in human A549 cells assessed as decrease in half life at 10 uM pretreated for 12 hrs followed by CHX treatment for 1 to 2 hrs by Western blot analysis; format: cell-based; details: time 13-14 hrs
[27] = molecular target: Myc proto-oncogene protein (Homo sapiens) (UniProt P01106); experiment: Inhibition of c-Myc transcriptional activity (unknown origin) at 10 uM by luciferase reporter gene assay
[28] = molecular target: c-Myc/c-Max (Homo sapiens) (UniProt P01106+P61244); experiment: Disruption of c-Myc-Max interaction in human A549 cells assessed as decrease in at 10 uM incubated for 48 hrs by immunoprecipitation method; format: cell-based
[29] = test system: Lewis lung carcinoma cell line; experiment: Antitumor activity against mouse Lewis lung carcinoma cells allografted in C57BL/6 mouse assessed as inhibition of tumor growth administered intraperitoneally every two days for 28 days; format: functional, cell-based; details: dose 20-40 mg/kg, route ip, time 28.0 day
[30] = Toxicity in C57BL/6 mouse allografted with mouse Lewis lung carcinoma cells assessed as body weight loss at 20 to 40 mg/kg, ip administered every two days for 28 days; format: organism-based; details: in vivo, 672 h, dose 20-40 mg/kg, time 28 day
[31] = Toxicity in C57BL/6 mouse allografted with mouse Lewis lung carcinoma cells assessed as discernible signs of toxicity at 20 to 40 mg/kg, ip administered every two days for 28 days; format: organism-based; details: in vivo, 672 h, dose 20-40 mg/kg, time 28 day
[32] = test system: Lewis lung carcinoma cell line; experiment: Antitumor activity against mouse Lewis lung carcinoma cells allografted in C57BL/6 mouse at 20 mg/kg, ip administered every two days for 28 days relative to control; format: functional; details: 672 h, time 28 day, read-out: TGI
[33] = test system: Lewis lung carcinoma cell line; experiment: Antitumor activity against mouse Lewis lung carcinoma cells allografted in C57BL/6 mouse at 40 mg/kg, ip administered every two days for 28 days relative to control; format: functional; details: 672 h, time 28 day, read-out: TGI
Lewis lung carcinoma = experiment: In vivo inhibition of c-Myc in mouse Lewis lung carcinoma cells allografted in C57BL/6 mouse at 20 to 40 mg/kg, ip administered every two days for 28 days by Western blot analysis; format: functional, organism-based; details: dose 20-40 mg/kg, time 28.0 day
[34] = Toxicity in C57BL/6 mouse allografted with mouse Lewis lung carcinoma cells assessed as pathological damage in heart at 20 mg/kg, ip administered every two days for 28 days by H and E staining based analysis; format: organism-based; details: in vivo, 672 h, time 28 day
[35] = Toxicity in C57BL/6 mouse allografted with mouse Lewis lung carcinoma cells assessed as pathological damage in liver at 20 mg/kg, ip administered every two days for 28 days by H and E staining based analysis; format: organism-based; details: in vivo, 672 h, time 28 day
[36] = Toxicity in C57BL/6 mouse allografted with mouse Lewis lung carcinoma cells assessed as pathological damage in spleen at 20 mg/kg, ip administered every two days for 28 days by H and E staining based analysis; format: organism-based; details: in vivo, 672 h, time 28 day
[37] = Toxicity in C57BL/6 mouse allografted with mouse Lewis lung carcinoma cells assessed as pathological damage in kidneys at 20 mg/kg, ip administered every two days for 28 days by H and E staining based analysis; format: organism-based, Kidney; details: in vivo, 672 h, time 28 day

Sequence of Myc proto-oncogene protein (Homo sapiens) (P01106 whole entry): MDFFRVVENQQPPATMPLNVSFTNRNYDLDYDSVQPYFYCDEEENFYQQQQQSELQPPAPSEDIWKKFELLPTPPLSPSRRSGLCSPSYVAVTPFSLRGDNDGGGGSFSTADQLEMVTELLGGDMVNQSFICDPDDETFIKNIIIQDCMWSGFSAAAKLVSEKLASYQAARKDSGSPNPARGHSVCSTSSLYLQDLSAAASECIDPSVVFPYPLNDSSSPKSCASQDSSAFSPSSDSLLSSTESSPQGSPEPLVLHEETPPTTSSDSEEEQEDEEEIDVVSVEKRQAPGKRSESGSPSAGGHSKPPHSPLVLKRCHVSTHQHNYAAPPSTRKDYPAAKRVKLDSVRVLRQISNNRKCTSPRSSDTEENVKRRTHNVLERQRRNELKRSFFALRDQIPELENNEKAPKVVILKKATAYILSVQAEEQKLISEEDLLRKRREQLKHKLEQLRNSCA
Sequence of c-Myc/c-Max (Homo sapiens) (P01106 whole entry): as above
Sequence of c-Myc/c-Max (Homo sapiens) (P61244 2-160 partner limits assumed): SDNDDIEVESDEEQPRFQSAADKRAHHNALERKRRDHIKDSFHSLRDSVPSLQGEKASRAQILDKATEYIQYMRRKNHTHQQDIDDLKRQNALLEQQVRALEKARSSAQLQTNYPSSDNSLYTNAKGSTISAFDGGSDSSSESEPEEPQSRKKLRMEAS

## c1ccc2c(c1)nc(-c1cc(-c3ccc(N4CCOCC4)cc3)on1)n2CCN1CCCCC1
A549 [1]
  IC50: 4.08 µM
NCI-H1299
  IC50: 7.86 µM
[2]
  viability at 48 h, 20 µM: > 90%
A549 [3]
  viability at 2.5 µM: 70.1%
A549 [4]
  Activity: 8.46%
A549 [5]
  Activity: 18.7%
A549 [6]
  Activity: 2.76%
A549 [7]
  viability at 5 µM: 68.3%
A549 [8]
  Activity: 9.5%
A549 [9]
  Activity: 19.6%
A549 [10]
  Activity: 2.63%
A549 [11]
  viability at 10 µM: 26.1%
A549 [12]
  Activity: 37.8%
A549 [13]
  Activity: 33%
A549 [14]
  Activity: 3.05%
A549 [15]
  Activity: 27%
A549 [16]
  Activity: Dose-dependent-effect
A549 [17]
  Activity: Active
A549 [18]
  Activity: Active
A549 [19]
  Activity: Active
A549 [20]
  Activity: Active
A549 [21]
  Activity: Active
A549 [22]
  Activity: inactive
[23]
  inhibition: Dose-dependent-effect
[24]
  inhibition: Dose-dependent-effect
[25]
  inhibition: inactive
[26]
  inhibition: Active
[27]
  inhibition: Active
[28]
  Activity: Active
[29]
  inhibition: Active
[30]
  Activity: Non-toxic
[31]
  Activity: Non-toxic
[32]
  inhibition in vivo at 20 mg/kg: 59.9%
[33]
  inhibition in vivo at 40 mg/kg: 76.4%
Lewis lung carcinoma
  inhibition: Active
[34]
  Activity: Non-toxic
[35]
  Activity: Non-toxic
[36]
  Activity: Non-toxic
[37]
  Activity: Non-toxic
